Test results as given in the supplement of paper PMC11061612.

Key:
Assay in all cases: combination Emax (second highest fraction inhibited in the dose matrix, 72 h); higher = more inhibition; extreme values may be limits of the assay
[1] = test system: OVCAR-5 (Ovarian Carcinoma)
Method in brief: (§1)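 After 24 hours at 37°C and 5% CO2 in 1536-well plates, cells in DMEM/F12 or RPMI plus 10% FBS received two-drug dose matrices for 72 hours. Viability came from CellTiter-Glo 2.0 luminescence and was scaled as inhibition, anchored at 0 by vehicle wells and at 1 by blank wells. Combination Emax is taken as the second-highest inhibition in the matrix, and Bliss excess as the observed combination effect less EA + EB − EA·EB, with EA and EB the single-agent effects.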

[2] = test system: HH (T-Cell Non-Hodgkin's Lymphoma)
Method in brief: as §1

[3] = test system: KYAE-1 (Esophageal Adenocarcinoma)
Method in brief: as §1

[4] = test system: WSU-NHL (B-Cell Non-Hodgkin's Lymphoma)
Method in brief: as §1

[5] = test system: TGBC1TKB (Biliary Tract Carcinoma)
Method in brief: as §1

GAMG (Glioblastoma) = test system: GAMG (Glioblastoma)
Method in brief: as §1

[6] = test system: SNU-16 (Gastric Carcinoma)
Method in brief: as §1

[7] = test system: ESS-1 (Other Solid Carcinomas)
Method in brief: as §1

[8] = test system: BE-13 (T-Lymphoblastic Leukemia)
Method in brief: as §1

[9] = test system: LNZTA3WT4 (Low Grade Glioma)
Method in brief: as §1

MPP-89 (Mesothelioma) = test system: MPP-89 (Mesothelioma)
Method in brief: as §1

EW-11 (Ewing's Sarcoma) = test system: EW-11 (Ewing's Sarcoma)
Method in brief: as §1

[10] = test system: YAPC (Pancreatic Carcinoma)
Method in brief: as §1

| Structure (SMILES) | combination Emax [1] | combination Emax [2] | combination Emax [3] | combination Emax [4] | combination Emax [5] | combination Emax (GAMG (Glioblastoma)) | combination Emax [6] | combination Emax [7] | combination Emax [8] | combination Emax [9] | combination Emax (MPP-89 (Mesothelioma)) | combination Emax (EW-11 (Ewing's Sarcoma)) | combination Emax [10] |
| --- | --- | --- | --- | --- | --- | --- | --- | --- | --- | --- | --- | --- | --- |
| C=CCn1c(=O)c2cnc(Nc3ccc(N4CCN(C)CC4)cc3)nc2n1-c1cccc(C(C)(C)O)n1 [AZD1775] + CCc1c2c(nc3ccc(O)cc13)-c1cc3c(c(=O)n1C2)COC(=O)[C@]3(O)CC [SN-38] (first compound max 1 µM, partner max 0.3 µM) | 0.77 | 0.567 | 0.267 | 0.999 | 0.426 | 0.916 | 0.989 | 1 | 1 | 0.802 | 0.769 | 0.723 | 0.722 |
| CN(CCO)CC[C@H](CSc1ccccc1)Nc1ccc(S(=O)(=O)NC(=O)c2ccc(N3CCC([C@@H](O)c4ccccc4-c4ccc(Cl)cc4)CC3)cc2)cc1S(=O)(=O)C(F)(F)F [AZD4320] + CS(=O)(=O)CCNCc1ccc(-c2ccc3ncnc(Nc4ccc(OCc5cccc(F)c5)c(Cl)c4)c3c2)o1 [Lapatinib] (first compound max 1 µM, 7x7, partner max 10 µM) | 0.896 | 0.316 | 0.97 | 0.945 | 0.58 | 0.951 | 0.941 | 0.973 | 1 | 0.398 | 0.746 | 0.95 | 0.257 |
| Cc1c2c(nn1C)CSCc1cc(n(C)n1)CSc1cc(c3ccccc3c1)OCCCc1c(C(=O)O)n(C)c3c-2c(Cl)ccc13 [AZD5991] + CC(=O)O[C@H]1C(=O)[C@@]2(C)[C@H]([C@H](OC(=O)c3ccccc3)[C@]3(O)C[C@H](OC(=O)[C@H](O)[C@@H](NC(=O)c4ccccc4)c4ccccc4)C(C)=C1C3(C)C)[C@]1(OC(C)=O)CO[C@@H]1C[C@@H]2O [Paclitaxel] (first compound max 1 µM, 7x7, partner max 3 µM) | 0.707 | 0.87 | 0.175 | 0.998 | 0.412 | 0.999 | 1 | 1 | 0.852 | 0.899 | 0.557 | 0.895 | 0.315 |
| Cc1c2c(nn1C)CSCc1cc(n(C)n1)CSc1cc(c3ccccc3c1)OCCCc1c(C(=O)O)n(C)c3c-2c(Cl)ccc13 [AZD5991] + Nc1ccn([C@@H]2O[C@H](CO)[C@@H](O)C2(F)F)c(=O)n1 [Gemcitabine] (first compound max 1 µM, 7x7, partner max 0.3 µM) | 0.422 | 0.879 | 0.127 | 0.967 | 0.255 | 0.662 | 1 | 0.961 | 0.923 | 0.633 | 0.428 | 0.868 | 0.575 |
| C[C@@H]1COCCN1c1cc(C2([S@](C)(=N)=O)CC2)nc(-c2ccnc3[nH]ccc23)n1 [AZD6738] + C1CC(C1)(C(=O)[O-])C(=O)[O-].N.N.[Pt+2] [Carboplatin] (first compound max 10 µM, 7x7, partner max 10 µM) | 0.75 | 0.22 | 0.0812 | 0.849 | 0.302 | 0.611 |  | 0.98 | 0.737 | 0.806 | 0.42 | 0.584 | 0.369 |
| C[C@@H](Nc1cc(F)cc(F)c1)c1cc(C(=O)N(C)C)cc2c(=O)cc(N3CCOCC3)oc12 [AZD8186] + C1CN(CCC1(C(=O)N[C@@H](CCO)C2=CC=C(C=C2)Cl)N)C3=NC=NC4=C3C=CN4 [AZD5363] (first compound max 10 µM, 7x7, partner max 10 µM) | 0.432 | 0.299 | 0.154 | 0.9 | 0.559 | 0.657 | 0.22 | 0.549 | 0.16 | 0.357 | 0.382 | 0.579 | 0.246 |
| C[C@@H](Nc1cc(F)cc(F)c1)c1cc(C(=O)N(C)C)cc2c(=O)cc(N3CCOCC3)oc12 [AZD8186] + CC(=O)c1c(C)c2cnc(Nc3ccc(N4CCNCC4)cn3)nc2n(C2CCCC2)c1=O [Palbociclib] (first compound max 10 µM, 7x7, partner max 10 µM) | 0.55 | 0.413 | 0.11 | 0.967 | 0.534 | 0.723 | 0.639 | 0.552 | 0.62 | 0.478 | 0.317 | 0.428 | 0.349 |
| C[C@@H](Oc1cc(-c2cnn(C3CCNCC3)c2)cnc1N)c1c(Cl)ccc(F)c1Cl [Crizotinib] + CC1=C(C(=CC=C1)Cl)NC(=O)C2=CN=C(S2)NC3=CC(=NC(=N3)C)N4CCN(CC4)CCO [Dasatinib] (first compound max 10 µM, 7x7, partner max 2 µM) | 0.826 | 0.203 | 0.169 | 0.994 | 0.707 | 0.929 | 0.909 | 0.987 | 0.943 | 0.666 | 0.914 | 0.788 | 0.694 |
| C[C@@H](Oc1cc(-c2cnn(C3CCNCC3)c2)cnc1N)c1c(Cl)ccc(F)c1Cl [Crizotinib] + Cn1cnc2c(F)c(Nc3ccc(Br)cc3Cl)c(C(=O)NOCCO)cc21 [Selumetinib] (first compound max 10 µM, 7x7, partner max 10 µM) | 0.7 | 0.0931 | 0.0881 | 0.98 | 0.147 | 0.54 | 0.989 | 0.773 | 0.974 | 0.456 | 0.37 | 0.81 | 0.526 |
| CS(=O)(=O)CCNCc1ccc(-c2ccc3ncnc(Nc4ccc(OCc5cccc(F)c5)c(Cl)c4)c3c2)o1 [Lapatinib] + Cn1cnc2c(F)c(Nc3ccc(Br)cc3Cl)c(C(=O)NOCCO)cc21 [Selumetinib] (first compound max 10 µM, 7x7, partner max 10 µM) | 0.655 | 0.211 | 0.83 | 0.788 | 0.288 | 0.644 | 0.557 | 0.705 | 0.887 | 0.369 | 0.42 | 0.195 | 0.386 |
| CS(=O)(=O)CCNCc1ccc(-c2ccc3ncnc(Nc4ccc(OCc5cccc(F)c5)c(Cl)c4)c3c2)o1 [Lapatinib] + NC1(c2ccc(-c3nc4ccn5c(=O)[nH]nc5c4cc3-c3ccccc3)cc2)CCC1 [MK-2206] (first compound max 10 µM, 7x7, partner max 10 µM) | 0.787 | 0.451 | 0.892 | 0.969 | 0.623 | 0.862 | 0.964 | 0.96 | 0.971 | 0.911 | 0.152 | 0.948 | 0.356 |
| O=C(c1cc(Cc2n[nH]c(=O)c3ccccc23)ccc1F)N1CCN(C(=O)C2CC2)CC1 [Olaparib] + CC1(C)CCC(CN2CCN(c3ccc(C(=O)NS(=O)(=O)c4ccc(NCC5CCOCC5)c([N+](=O)[O-])c4)c(Oc4cnc5[nH]ccc5c4)c3)CC2)=C(c2ccc(Cl)cc2)C1 [Venetoclax] (first compound max 10 µM, 7x7, partner max 1 µM) | 0.0569 | 0.165 | 0.154 | 0.575 | 0.108 | 0.0955 | 0.607 | 0.467 | 0.315 | 0.0965 | 0.0498 | 0.698 | 0.081 |
| O=C(c1cc(Cc2n[nH]c(=O)c3ccccc23)ccc1F)N1CCN(C(=O)C2CC2)CC1 [Olaparib] + CN(CC[C@H](CSC1=CC=CC=C1)NC2=C(C=C(C=C2)S(=O)(=O)NC(=O)C3=CC=C(C=C3)N4CCC(CC4)[C@H](C5=CC=CC=C5C6=CC=C(C=C6)Cl)O)S(=O)(=O)C(F)(F)F)CCO [AZD4320] (first compound max 10 µM, 7x7, partner max 1 µM) | 0.182 | 0.21 | 0.587 | 0.674 | 0.366 | 0.223 | 0.691 | 0.787 | 0.983 | 0.168 | 0.138 | 0.923 | 0.11 |
| O=C(c1cc(Cc2n[nH]c(=O)c3ccccc23)ccc1F)N1CCN(C(=O)C2CC2)CC1 [Olaparib] + COc1nnc2ccc(N3CCC(c4ccc(OCCN5CCN(C)C(=O)[C@H]5C)cc4)CC3)nn12 [AZD5153] (first compound max 10 µM, 7x7, partner max 1 µM) | 0.449 | 0.382 | 0.156 | 0.929 | 0.24 | 0.448 | 0.769 | 0.695 | 0.648 | 0.357 | 0.393 | 0.712 | 0.267 |
| O=C(c1cc(Cc2n[nH]c(=O)c3ccccc23)ccc1F)N1CCN(C(=O)C2CC2)CC1 [Olaparib] + Cc1c2c(nn1C)CSCc1cc(n(C)n1)CSc1cc(c3ccccc3c1)OCCCc1c(C(=O)O)n(C)c3c-2c(Cl)ccc13 [AZD5991] (first compound max 10 µM, 7x7, partner max 1 µM) | 0.122 | 0.809 | 0.231 | 0.797 | 0.157 | 0.0955 | 0.994 | 0.403 | 0.498 | 0.123 | 0.0575 | 0.831 | 0.104 |
| Cc1nc(-c2cn3c(n2)-c2ccc(-c4cnn(C(C)(C)C(N)=O)c4)cc2OCC3)n(C(C)C)n1 [Taselisib] + O=C(Nc1ccc2[nH]nc(-c3ccncc3)c2c1)[C@@H]1CCN(CC(=O)N2CCN(c3ccc(-c4ncccn4)cc3)CC2)C1 [SCH772984] (first compound max 10 µM, 7x7, partner max 5 µM) | 0.846 | 0.393 | 0.408 | 0.97 | 0.663 | 0.78 | 0.82 | 0.923 | 0.373 | 0.66 | 0.688 | 0.746 | 0.701 |
